# Key:
# [1] = cited from earlier work
# [2] = tested on: zebrafish embryos; test: Phenotypic screen for edema and survival in zebrafish larvae at 72 hpf; conditions: for phenotype in initial chemical screen: 10 μM, larvae at 72 hpf; for Dead / Edemic 1 (E1) / Edemic 2 (E2) / Edemic 3 (E3) / Wild-type (WT): number of larvae (of 36), 3 μM from 2 hpf, scored at 72 hpf
# Procedure: The screen was performed in zebrafish embryos using the National Cancer Institute's Developmental Therapeutics Program (NCI/DTP) Diversity Set I. This library contains 1990 compounds selected by pharmacophore modeling to represent the more than 140,000 small molecules maintained in the NCI/DTP Open Repository. Compounds from the NCI/DTP Diversity Set I were diluted to 10 μM in E3 embryo medium (5 mM NaCl, 0.33 mM CaCl2, 0.33 mM MgSO4, and 0.17 mM KCl) in a final DMSO concentration of 0.5% and arrayed in 96-well plates. Beginning at approximately 2 hpf, embryos were transferred to each well in groups of five using a glass pipette. The plates were incubated at 28.5° C. for 70 hours. Individual wells were then scored for a dominant phenotype, representative of at least four of the five embryos. The primary objective was to identify compounds that caused edema in treated embryos at 72 hpf. Small molecules generating edema were retested once for verification, before obtaining additional compound from the NCI/DTP Open Repository.
# PTBA was synthesized as described below. Hydroxyurea and aphidicolin were obtained from Sigma-Aldrich. Groups of 20 to 30 chorionated 2 hpf embryos were arrayed in individual wells of 12-well plates. E3 medium was removed with a glass pipette and replaced with 1.5 ml treatment solutions containing 0.5% DMSO in E3 with or without compound at the reported concentrations. Treatments for all studies were initiated at 2 hpf, except for the temporal studies (FIG. 6) and the HUA studies (FIG. 11). HUA studies were performed as described previously (Zhang, L., et al. Cell cycle progression is required for zebrafish somite morphogenesis but not segmentation clock function. Development 135, 2065-2070, (2008)), with the following modifications. HUA in 0.5% DMSO was added at early gastrulation (5 hpf) and PTBA was subsequently added at late gastrulation (8 hpf) to allow for penetration of the proliferation inhibitors. All embryos were incubated at 28.5° C. until the required developmental stage.
# Following 70 hours of treatment (as described above), edemic phenotypes in 72 hpf larvae were scored using a phenotype-based classification system. Wild type: no visible edema or developmental delay. […] Significant effects (p<0.05) on survival were determined by two-tailed Fisher's exact test in comparison with the 0 μM PTBA treatment group.
# PTBA and methyl-4-(phenylthio)butanoate were synthesized as described above. 4-(Naphthalen-2-ylthio)butanoic acid (NSC2733) and 3-(phenylthio)benzoic acid (NSC113994), were obtained from the NCI/DTP Open Repository. APHA compound 8, Apicidin, butanoic acid, PBA, 4-phenoxybutanoic acid, 5-phenylpentanoic acid, Scriptaid, TSA, and valproic acid were obtained from Sigma-Aldrich. MS-275 and SAHA were obtained from Cayman Chemical Co. 4-(phenylsulfonyl)butanoic acid was obtained from Matrix Scientific. Tubacin was a gift of Dr. Ralph Mazitschek of the Broad Institute (Cambridge, Mass.). The remaining PTBA analogs were synthesized. Three independent groups of 12 chorionated 2 hpf embryos were arrayed in individual wells of 24-well plates. E3 medium was removed with a glass pipette and replaced with 800 μl treatment solutions containing 0.5% DMSO in E3 with or without compound at the reported concentrations.
# Phenotypic screening of PTBA analogs was performed identically to the concentration-response experiments detailed above. Embryos were treated with each PTBA analog from 2 to 72 hpf as described above.
# [3] = tested on: kidney field; test: In situ hybridization for kidney markers (pax2a, pax8, cdh17, wt1a, slc4a4, slcl2a1); assay type: in vivo, zebrafish; conditions: in situ hybridization, data not shown
# Procedure: (§1) PTBA was synthesized as described below. Hydroxyurea and aphidicolin were obtained from Sigma-Aldrich.
# (§2) In situ hybridization and immunocytochemistry: In situ hybridization was performed as previously described with some modifications.142 Hybridization temperature was 65° C. Embryos were blocked in 2% blocking reagent (Roche) with 5% sheep serum in MAB (100 mM maleic acid and 150 mM NaCl [pH 7.5]). Whole-mount immunocytochemistry with 1:25 mouse anti-α6F antibody (Developmental Studies Hybridoma Bank) and 1:100 Cy3 secondary antibody (Jackson ImmunoResearch) was performed as described previously.108 Embryos were embedded in JB-4 for sectioning per the manufacturer's instructions (Polysciences), sectioned at 5 μm, and mounted with Cytoseal 60 (Richard-Allan Scientific).
# [4] = tested on: renal progenitor cells; test: In situ hybridization for lhx1a expression in 10-somite embryos (renal progenitor cell expansion); assay type: in vivo; conditions: for responders at 3 µM: read-out: lhx1a expansion, percent of treated embryos
# Method in brief: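 Zebrafish embryos treated with compound, then colorimetric whole-mount in situ hybridization (65° C) for lhx1a mRNA at 10 somites. Embryos with expanded kidney field counted manually as percent of total. EC50 taken as 50% point of percent-expansion trendline; compounds also classed effective, partial or ineffective versus PTBA at matched concentration.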
# [5] = tested on: human HDACs; test: Fluorescence histone deacetylation assay with HeLa cell nuclear extract; assay type: biochemical
# Procedure: To evaluate this in vitro, the deacetylation of a fluorescent peptide substrate was measured in the presence of human HDACs.
# In vitro HDAC activity assays were performed using a fluorescence HDAC assay kit (Active Motif) according to the manufacturer's instructions. For maintaining compound solubility at 5 mM, the final DMSO concentration in all assay wells was increased to 5%. Fluorescence was detected using an M5 Plate Reader ([…])
# [6] = tested on: mesodermal markers myod1, fli1a, and ntla; test: In situ hybridization for the mesodermal markers myod1, fli1a and ntla in 10-somite embryos; assay type: in vivo, zebrafish
# Procedure: as §1, §2
# [7] = tested on: histone H4; test: Histone H4 hyperacetylation Western blot in treated embryos; assay type: in vivo, zebrafish; conditions: 24 hpf embryos, 6 hours; 3 μM PTBA, 25 μM PBA, 200 nM TSA
# Procedure: It was next determined whether the HDACi function of PTBA was quantifiable in vivo. 24 hpf embryos were treated with 3 μM PTBA, 25 μM PBA, or 200 nM TSA for 6 hours. Protein extracts were prepared and immunoblotted with an anti-hyperacetylated histone H4 antibody. […] Furthermore, increasing the compound concentration caused a corresponding increase in hyperacetylation (FIG. 21).
# SDS-PAGE and Western blotting were performed as described previously with some modifications (Noel, E. S. et al. Organ-specific requirements for Hdac1 in liver and pancreas formation. Dev Biol 322, 237-250, (2008)). Proteins were separated on 18% SDS-PAGE gels. Membranes were incubated at 4° C. overnight with 1:1000 anti-hyperacetylated histone H4 antibody (06-946, Millipore) or 1:1000 anti-α-tubulin antibody (Sigma-Aldrich) in PBT containing 5% nonfat milk.
# [8] = 3 μM from 2 hpf, 10-somite embryos
# [9] = 100 nM from 2 hpf, 10-somite embryos
# [10] = 200 nM from 2 hpf, 10-somite embryos
# [11] = Danio rerio, 3 μM from 2 hpf, 10-somite embryos
SMILES,Dead [2],Edemic 1 (E1) [2],Edemic 2 (E2) [2],Edemic 3 (E3) [2],Wild-type (WT) [2],"Lhx1a expansion caused by analog treatment, 3 μM [4, 8]",other results
O=C(O)CCCc1ccccc1 [Buphenyl],,,,,,,half-life (t1/2) ([1]; following administration): ~1 h; bioavailability ([1]; taken orally): about 80%
N=C(N)SCc1ccc(Cl)cc1Cl.O=[N+]([O-])c1c(O)c(Cl)cc(Cl)c1Cl [NSC35400],,,,,,,phenotype in initial chemical screen [2]: pericardial edema; size of the kidney field [3]: did not affect the size of the kidney field
COc1ccc(/C=C(\C#N)C(N)=O)c(OC)c1 [NSC134664],,,,,,,phenotype in initial chemical screen [2]: pericardial edema; size of the kidney field [3]: did not affect the size of the kidney field
N=C(N)c1ccc(N=Nc2c(O)ccc3c2[nH]c2ccccc23)cc1 [NSC357777],,,,,,,phenotype in initial chemical screen [2]: pericardial edema; size of the kidney field [3]: did not affect the size of the kidney field
"O=C(O)CCCS(=O)(=O)c1ccccc1 [PSOBA, 4-(phenylsulfonyl)butanoic acid, reference compound]",0,0,0,0,36,−,"lhx1a expansion, percent of treated embryos [4, 8]: no ability to expand renal progenitor cells; HDAC activity elicited by 10 μg HeLa extract, percent of the control value ([5]; 5 mM compound): 70%"
"CC(/C=C/C(=O)NO)=C\[C@@H](C)C(=O)c1ccc(N(C)C)cc1 [TSA, trichostatin A, reference compound]",36,0,0,0,0,,"treated 72 hpf larvae killed ([2]; 300 nM): greater than 90%; larvae with edemic phenotype / pericardial edema by 72 hpf ([2]; 3 μM PTBA, 25 μM PBA, 200 nM TSA): 100%; death by 72 hpf ([2]; 25 μM PBA, 200 nM TSA, n=90): 61%; Lhx1a expansion caused by analog treatment, 100 nM [4, 9]: +; lhx1a expansion, percent of treated embryos [4, 9]: 97%; Lhx1a expansion caused by analog treatment, 200 nM [4, 10]: +; lhx1a expansion, percent of treated embryos [4, 10]: 100%; lethality before reaching 10 somites ([4]; 400 nM): died before reaching 10 somites; treated embryos killed ([4]; 800 nM): lethal; lethality before the 10-somite stage ([4]; 1.5 μM): lethal; lethality before the 10-somite stage ([4]; 3 μM): killed all treated embryos; concentration producing an expansion of lhx1a expression consistent with 3 μM PTBA ([4]; concentration-response, 10-somite embryos): 200 nM; normal ntla expression disrupted, percent of treated embryos ([6]; 200 nM): 86%; myod1 expression decreased, percent of treated embryos ([6]; 3 μM PTBA (slightly decreased), 25 μM PBA, 200 nM TSA): 100%; fli1a expression decreased, percent of treated embryos ([6]; 25 μM PBA, 200 nM TSA): 95%; HDAC activity ([5]; 1 μM TSA, all input levels of nuclear extract): completely blocked activity; histone H4 hyperacetylation [7]: Histone H4 hyperacetylation was observed"
"CCC(=O)CCCCC[C@@H]1NC(=O)[C@H]2CCCCN2C(=O)[C@H]([C@@H](C)CC)NC(=O)[C@H](Cc2cn(OC)c3ccccc23)NC1=O [apicidin, reference compound]",36,0,0,0,0,,"Lhx1a expansion caused by analog treatment, 200 nM [4, 10]: −; Lhx1a expansion caused by analog treatment, 400 nM ([4]; 400 nM from 2 hpf, 10-somite embryos): +/−; treated embryos killed ([4]; 800 nM): 69%; Lhx1a expansion caused by analog treatment, 800 nM ([4]; 800 nM from 2 hpf, 10-somite embryos): XX^1; embryos surviving treatment ([4]; 800 nM, n=36): 31%; lethality before the 10-somite stage ([4]; 1.5 μM): lethal; lethality before the 10-somite stage ([4]; 3 μM): killed all treated embryos; responders at 0.4 µM ([4]; Danio rerio, read-out: lhx1a expansion, percent of treated embryos, 400 nM from 2 hpf, 10-somite embryos): 22%"
"CCCC(=O)O [butanoic acid, reference compound]",1,0,0,0,35,−,
CC(C)(C)OC(=O)CCCSc1ccccc1 [tert-butyl 4-(phenylthio)butanoate],0,3,0,0,33,+/−,"responders at 3 µM [4, 11]: 25%"
"O=C(CCCCCCC(=O)Nc1ccc([C@H]2O[C@@H](CSc3nc(-c4ccccc4)c(-c4ccccc4)o3)C[C@@H](c3ccc(CO)cc3)O2)cc1)NO [tubacin, reference compound]",0,0,0,0,36,−,effect on zebrafish embryos in the phenotypic screen ([2]; 3 μM): appeared wild-type
"CCCC(CCC)C(=O)O [valproic acid, reference compound]",0,11,0,0,25,+/−,"responders at 3 µM [4, 11]: 20%"

# Source: patent US10160705B2, “Class of HDAC inhibitors expands the renal progenitor cells population and improves the rate of recovery from acute kidney injury” (University of Pittsburgh—Of the Commonwealth System of …, priority 2011, dated 2018)
